The test system of the test is Cortical neurone. Nature of the test: Induction of axonal regeneration in mouse cortical neurons assessed as reversal of Abeta (25 to 35)-induced axonal atrophy at 10 uM treated 3 days after Abeta (25 to 35) challenge and measured 4 days post compound dosing by pNF-H and MAP2 immunostaining method. It counts as functional.

The source made the active and inactive calls. No cut-off for these calls is given here.

In the case of `O=C(O)/C=C/c1ccc(O[C@@H]2O[C@H](CO)[C@@H](O)[C@H](O)[C@H]2O)c(O)c1`, the outcome was Active.

Consider `C[C@@H]1O[C@@H](O[C@H]2[C@H](Oc3cc(O)c4c(c3)O[C@H](c3ccc(O)c(O)c3)CC4=O)O[C@H](CO)[C@@H](O)[C@@H]2O)[C@H](O)[C@H](O)[C@H]1O`, for which the outcome was Active.
